Source: publication PMC9977937, “Molecular insights into the catalytic mechanism of plasticizer degradation by a monoalkyl phthalate hydrolase” (Communications Chemistry, 2023)

What was measured:
[1] = target: T1, MehpH (Gordonia sp. P8219, UniProt Q2MHH5); assay: HPLC of MBP and PA at […] nm; type: biochemical; details: 1.0 mM MBP, 1.0 µM enzyme, 10% DMSO
T1 construct: synthetic gene in pET30a, His-tagged, E. coli BL21(DE3)
T1 sequence (Q2MHH5 1-311): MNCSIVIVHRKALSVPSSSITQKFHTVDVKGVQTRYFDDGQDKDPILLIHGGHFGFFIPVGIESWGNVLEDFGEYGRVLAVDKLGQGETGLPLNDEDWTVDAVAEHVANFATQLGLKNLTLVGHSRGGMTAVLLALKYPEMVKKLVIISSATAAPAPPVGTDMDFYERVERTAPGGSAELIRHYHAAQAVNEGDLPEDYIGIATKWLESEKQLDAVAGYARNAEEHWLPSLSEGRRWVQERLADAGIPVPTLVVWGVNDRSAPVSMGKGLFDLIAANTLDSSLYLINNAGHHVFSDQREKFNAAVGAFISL

[2] = target: T2, MehpH (crystallization construct) (Gordonia sp. P8219, UniProt Q2MHH5, D259N); assay: X-ray crystallography, […] Å; type: binding; details: pH 6.2, 16 °C
T2 construct: N-terminal 23 residues deleted (core 24-152 and 225-311, lid 153-224), His-tagged, pET30a, E. coli BL21(DE3); four molecules per asymmetric unit
T2 sequence (Q2MHH5 entry or part of it D259N): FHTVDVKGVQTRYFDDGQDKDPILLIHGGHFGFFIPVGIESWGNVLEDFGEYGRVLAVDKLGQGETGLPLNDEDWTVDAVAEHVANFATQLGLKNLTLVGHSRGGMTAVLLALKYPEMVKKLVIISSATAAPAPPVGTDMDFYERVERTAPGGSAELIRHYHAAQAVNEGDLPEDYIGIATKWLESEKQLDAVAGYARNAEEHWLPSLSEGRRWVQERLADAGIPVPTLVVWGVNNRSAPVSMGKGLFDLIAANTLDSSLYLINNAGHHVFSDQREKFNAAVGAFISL

CCCCOC(=O)c1ccccc1C(=O)O [MBP, monobutyl phthalate]
HPLC of MBP and PA at 254 nm [1]: Hydrolytic activities of MehpH and its variants using MBP as substrate

O=C(O)c1ccccc1C(=O)O [PA, phthalic acid]
X-ray crystallography, 2.8 Å ([2]; covalent ester with Ser125 (acyl-enzyme intermediate), crystals of the D259N mutant with MBP): The shape of the electron density is consistent with that of PA

CCCCO [butanol]
X-ray crystallography, 2.8 Å ([2]; non-covalent, in penetrating tunnel next to active site, one of four molecules, crystals with MBP): we discovered the electron density of butanol in the penetrating tunnel
